Reference: ChEMBL document CHEMBL4507302, “Data for DCP probe TP-020” (2021)

Experiments:
[1] = target: Phosphatidylinositol 4,5-bisphosphate 3-kinase catalytic subunit alpha isoform (Homo sapiens) (UniProt P42336); details: Compound concentration 1000.0 nM
[2] = target: Aurora kinase C (Homo sapiens) (UniProt Q9UQB9); details: Compound concentration 1000.0 nM
[3] = target: Serine/threonine-protein kinase SIK1 (Homo sapiens) (UniProt P57059); details: Compound concentration 1000.0 nM
[4] = target: Serine/threonine-protein kinase Nek9 (Homo sapiens) (UniProt Q8TD19); details: Compound concentration 1000.0 nM
[5] = target: Testis-specific serine/threonine-protein kinase 1 (Homo sapiens) (UniProt Q9BXA7); details: Compound concentration 1000.0 nM
[6] = target: Serine/threonine-protein kinase RIO1 (Homo sapiens) (UniProt Q9BRS2); details: Compound concentration 1000.0 nM
Sequence of Serine/threonine-protein kinase RIO1 (Homo sapiens) (Q9BRS2 whole entry): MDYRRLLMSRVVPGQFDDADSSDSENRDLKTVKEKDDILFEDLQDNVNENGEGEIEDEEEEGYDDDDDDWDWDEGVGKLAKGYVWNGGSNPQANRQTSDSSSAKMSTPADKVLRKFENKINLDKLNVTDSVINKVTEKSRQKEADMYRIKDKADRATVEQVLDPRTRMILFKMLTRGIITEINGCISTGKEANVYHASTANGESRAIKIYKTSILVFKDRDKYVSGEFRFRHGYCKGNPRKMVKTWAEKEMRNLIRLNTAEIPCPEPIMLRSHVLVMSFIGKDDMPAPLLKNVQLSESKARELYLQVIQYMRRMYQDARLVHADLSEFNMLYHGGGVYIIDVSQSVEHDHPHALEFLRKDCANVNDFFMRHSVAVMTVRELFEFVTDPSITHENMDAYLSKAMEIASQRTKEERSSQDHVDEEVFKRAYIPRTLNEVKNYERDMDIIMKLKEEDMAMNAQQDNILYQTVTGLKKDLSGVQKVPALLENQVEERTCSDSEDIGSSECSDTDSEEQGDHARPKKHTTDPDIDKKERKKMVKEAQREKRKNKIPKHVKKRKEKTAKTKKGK

[7] = target: Ribosomal protein S6 kinase alpha-1 (Homo sapiens) (UniProt Q15418); details: Compound concentration 1000.0 nM
[8] = target: LIM domain kinase 2 (Homo sapiens) (UniProt P53671); details: Compound concentration 1000.0 nM
[9] = target: Dual serine/threonine and tyrosine protein kinase (Homo sapiens) (UniProt Q6XUX3); details: Compound concentration 1000.0 nM
[10] = target: Serine/threonine-protein kinase TAO3 (Homo sapiens) (UniProt Q9H2K8); details: Compound concentration 1000.0 nM
[11] = target: Mitogen-activated protein kinase 7 (Homo sapiens) (UniProt Q13164); details: Compound concentration 1000.0 nM
[12] = target: Mast/stem cell growth factor receptor Kit (Homo sapiens) (UniProt P10721); details: Compound concentration 1000.0 nM
[13] = target: Mitogen-activated protein kinase 12 (Homo sapiens) (UniProt P53778); details: Compound concentration 1000.0 nM
[14] = target: Discoidin domain-containing receptor 2 (Homo sapiens) (UniProt Q16832); details: Compound concentration 1000.0 nM
[15] = system: Mast/stem cell growth factor receptor Kit (Homo sapiens), P10721 [D816H]; details: Compound concentration 1000.0 nM
[16] = target: Bone morphogenetic protein receptor type-1A (Homo sapiens) (UniProt P36894); details: Compound concentration 1000.0 nM
[17] = system: Epidermal growth factor receptor (Homo sapiens), P00533 [UNDEFINED MUTATION]; details: Compound concentration 1000.0 nM
[18] = target: Mitogen-activated protein kinase 8 (Homo sapiens) (UniProt P45983); details: Compound concentration 1000.0 nM
[19] = target: Macrophage colony-stimulating factor 1 receptor (Homo sapiens) (UniProt P07333); details: Compound concentration 1000.0 nM
[20] = target: Serine/threonine-protein kinase STK11 (Homo sapiens) (UniProt Q15831); details: Compound concentration 1000.0 nM
[21] = target: Dual specificity mitogen-activated protein kinase kinase 2 (Homo sapiens) (UniProt P36507); details: Compound concentration 1000.0 nM
[22] = system: Tyrosine-protein kinase ABL1 (Homo sapiens), P00519 [F317L]; details: Compound concentration 1000.0 nM
[23] = system: Tyrosine-protein kinase ABL1 (Homo sapiens), P00519 [F317I]; details: Compound concentration 1000.0 nM
[24] = target: Activin receptor type-1-like (Homo sapiens) (UniProt P37023); details: Compound concentration 1000.0 nM
Sequence of Activin receptor type-1-like (Homo sapiens) (P37023 whole entry): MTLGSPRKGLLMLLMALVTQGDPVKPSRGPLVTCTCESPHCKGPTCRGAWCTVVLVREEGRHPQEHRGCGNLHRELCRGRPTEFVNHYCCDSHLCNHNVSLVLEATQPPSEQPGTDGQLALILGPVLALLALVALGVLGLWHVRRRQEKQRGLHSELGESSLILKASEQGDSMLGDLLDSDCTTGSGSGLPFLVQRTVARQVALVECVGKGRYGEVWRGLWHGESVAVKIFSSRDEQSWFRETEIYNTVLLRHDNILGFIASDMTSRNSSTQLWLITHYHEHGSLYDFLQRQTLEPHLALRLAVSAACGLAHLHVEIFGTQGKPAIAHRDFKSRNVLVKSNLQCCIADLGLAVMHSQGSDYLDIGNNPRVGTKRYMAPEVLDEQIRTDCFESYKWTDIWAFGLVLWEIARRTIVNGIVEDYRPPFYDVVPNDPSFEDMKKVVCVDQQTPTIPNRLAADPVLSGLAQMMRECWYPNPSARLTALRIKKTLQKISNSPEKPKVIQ

[25] = target: Mitogen-activated protein kinase kinase kinase 2 (Homo sapiens) (UniProt Q9Y2U5); details: Compound concentration 1000.0 nM
[26] = target: Inhibitor of nuclear factor kappa-B kinase subunit beta (Homo sapiens) (UniProt O14920); details: Compound concentration 1000.0 nM
[27] = target: Insulin-like growth factor 1 receptor (Homo sapiens) (UniProt P08069); details: Compound concentration 1000.0 nM
[28] = target: Receptor tyrosine-protein kinase erbB-4 (Homo sapiens) (UniProt Q15303); details: Compound concentration 1000.0 nM
[29] = system: Hepatocyte growth factor receptor (Homo sapiens), P08581 [Y1235D]; details: Compound concentration 1000.0 nM
[30] = target: Protein-tyrosine kinase 6 (Homo sapiens) (UniProt Q13882); details: Compound concentration 1000.0 nM
[31] = target: Serine/threonine-protein kinase pim-2 (Homo sapiens) (UniProt Q9P1W9); details: Compound concentration 1000.0 nM
[32] = target: Serine/threonine-protein kinase 17A (Homo sapiens) (UniProt Q9UEE5); details: Compound concentration 1000.0 nM
Sequence of Serine/threonine-protein kinase 17A (Homo sapiens) (Q9UEE5 whole entry): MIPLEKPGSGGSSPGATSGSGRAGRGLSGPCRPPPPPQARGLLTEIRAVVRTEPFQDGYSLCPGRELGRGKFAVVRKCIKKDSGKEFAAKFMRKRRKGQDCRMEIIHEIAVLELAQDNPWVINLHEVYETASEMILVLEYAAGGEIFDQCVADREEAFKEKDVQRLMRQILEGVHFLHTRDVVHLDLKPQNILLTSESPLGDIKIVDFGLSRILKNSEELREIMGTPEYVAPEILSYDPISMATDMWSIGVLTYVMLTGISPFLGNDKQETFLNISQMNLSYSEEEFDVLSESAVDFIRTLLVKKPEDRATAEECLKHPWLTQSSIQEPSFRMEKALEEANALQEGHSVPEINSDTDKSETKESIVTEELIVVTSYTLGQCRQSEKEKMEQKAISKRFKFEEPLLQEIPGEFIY

[33] = target: Serine/threonine-protein kinase PknB (Mycobacterium tuberculosis) (UniProt P9WI81); details: Compound concentration 1000.0 nM
Sequence of Serine/threonine-protein kinase PknB (Mycobacterium tuberculosis) (P9WI81 whole entry): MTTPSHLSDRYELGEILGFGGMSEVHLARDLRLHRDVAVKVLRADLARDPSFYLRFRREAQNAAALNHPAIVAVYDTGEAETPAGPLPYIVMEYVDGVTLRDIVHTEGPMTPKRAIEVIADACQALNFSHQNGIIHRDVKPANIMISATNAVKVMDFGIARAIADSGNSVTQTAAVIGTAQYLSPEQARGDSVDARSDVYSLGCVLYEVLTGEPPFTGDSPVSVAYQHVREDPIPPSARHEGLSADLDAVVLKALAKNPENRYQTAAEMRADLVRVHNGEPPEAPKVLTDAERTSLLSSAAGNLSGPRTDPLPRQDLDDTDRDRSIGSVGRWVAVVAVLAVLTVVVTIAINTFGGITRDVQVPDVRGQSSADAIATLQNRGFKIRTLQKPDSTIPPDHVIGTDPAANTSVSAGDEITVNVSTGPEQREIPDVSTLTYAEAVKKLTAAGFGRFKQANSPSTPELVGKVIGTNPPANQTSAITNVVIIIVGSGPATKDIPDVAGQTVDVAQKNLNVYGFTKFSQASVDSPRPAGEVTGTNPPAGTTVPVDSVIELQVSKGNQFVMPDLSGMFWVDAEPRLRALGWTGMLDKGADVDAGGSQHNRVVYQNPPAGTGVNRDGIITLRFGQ

[34] = target: Serine/threonine-protein kinase PAK 5 (Homo sapiens) (UniProt Q9P286); details: Compound concentration 1000.0 nM
[35] = target: Mitogen-activated protein kinase kinase kinase kinase 2 (Homo sapiens) (UniProt Q12851); details: Compound concentration 1000.0 nM
[36] = target: 5-hydroxytryptamine receptor 2A (Homo sapiens) (UniProt P28223); details: Compound concentration 10.0 uM
[37] = target: Phosphatidylinositol 4-phosphate 5-kinase type-1 alpha (Homo sapiens) (UniProt Q99755); details: Compound concentration 1000.0 nM
Sequence of Phosphatidylinositol 4-phosphate 5-kinase type-1 alpha (Homo sapiens) (Q99755 whole entry, canonical isoform): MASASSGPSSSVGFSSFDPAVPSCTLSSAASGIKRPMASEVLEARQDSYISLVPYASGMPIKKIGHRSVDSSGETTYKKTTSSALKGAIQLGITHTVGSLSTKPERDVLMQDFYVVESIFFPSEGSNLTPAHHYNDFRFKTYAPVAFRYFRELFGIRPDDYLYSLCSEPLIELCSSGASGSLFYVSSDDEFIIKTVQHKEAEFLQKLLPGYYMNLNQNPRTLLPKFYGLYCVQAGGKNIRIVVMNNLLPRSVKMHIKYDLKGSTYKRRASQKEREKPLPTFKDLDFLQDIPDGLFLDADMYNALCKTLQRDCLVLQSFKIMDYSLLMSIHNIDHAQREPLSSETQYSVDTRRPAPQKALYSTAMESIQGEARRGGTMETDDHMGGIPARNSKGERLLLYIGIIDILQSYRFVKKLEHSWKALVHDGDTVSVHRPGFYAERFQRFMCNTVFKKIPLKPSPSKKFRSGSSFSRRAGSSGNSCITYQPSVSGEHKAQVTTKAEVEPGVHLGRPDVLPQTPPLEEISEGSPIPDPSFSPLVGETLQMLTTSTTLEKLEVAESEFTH

[38] = system: Phosphatidylinositol 4,5-bisphosphate 3-kinase catalytic subunit alpha isoform (Homo sapiens), P42336 [E542K]; details: Compound concentration 1000.0 nM
[39] = target: cGMP-dependent protein kinase 1 (Homo sapiens) (UniProt Q13976); details: Compound concentration 1000.0 nM
[40] = target: 5-hydroxytryptamine receptor 1B (Homo sapiens) (UniProt P28222); details: Compound concentration 10.0 uM
[41] = system: Leucine-rich repeat serine/threonine-protein kinase 2 (Homo sapiens), Q5S007 [G2019S]; details: Compound concentration 1000.0 nM
[42] = target: 5'-AMP-activated protein kinase catalytic subunit alpha-2 (Homo sapiens) (UniProt P54646); details: Compound concentration 1000.0 nM
Sequence of 5'-AMP-activated protein kinase catalytic subunit alpha-2 (Homo sapiens) (P54646 whole entry, looked up): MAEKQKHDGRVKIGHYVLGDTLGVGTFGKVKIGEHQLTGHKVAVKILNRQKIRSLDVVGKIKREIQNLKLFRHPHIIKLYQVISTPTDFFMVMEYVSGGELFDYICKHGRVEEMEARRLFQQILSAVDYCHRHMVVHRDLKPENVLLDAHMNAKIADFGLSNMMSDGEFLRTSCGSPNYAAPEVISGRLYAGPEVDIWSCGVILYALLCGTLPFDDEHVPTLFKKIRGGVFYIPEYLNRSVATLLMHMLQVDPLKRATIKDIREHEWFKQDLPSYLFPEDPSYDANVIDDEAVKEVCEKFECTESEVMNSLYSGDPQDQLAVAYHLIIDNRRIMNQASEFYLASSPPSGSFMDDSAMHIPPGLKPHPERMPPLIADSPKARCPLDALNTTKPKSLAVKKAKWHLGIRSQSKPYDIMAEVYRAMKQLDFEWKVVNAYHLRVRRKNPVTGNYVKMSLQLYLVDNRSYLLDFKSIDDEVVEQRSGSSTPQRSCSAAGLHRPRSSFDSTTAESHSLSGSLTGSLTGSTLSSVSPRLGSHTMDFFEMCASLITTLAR

[43] = target: Tyrosine-protein kinase JAK3 (Homo sapiens) (UniProt P52333); details: Compound concentration 1000.0 nM
[44] = target: Receptor tyrosine-protein kinase erbB-3 (Homo sapiens) (UniProt P21860); details: Compound concentration 1000.0 nM
[45] = target: Serine/threonine-protein kinase MARK1 (Homo sapiens) (UniProt Q9P0L2); details: Compound concentration 1000.0 nM
Sequence of Serine/threonine-protein kinase MARK1 (Homo sapiens) (Q9P0L2 whole entry, looked up): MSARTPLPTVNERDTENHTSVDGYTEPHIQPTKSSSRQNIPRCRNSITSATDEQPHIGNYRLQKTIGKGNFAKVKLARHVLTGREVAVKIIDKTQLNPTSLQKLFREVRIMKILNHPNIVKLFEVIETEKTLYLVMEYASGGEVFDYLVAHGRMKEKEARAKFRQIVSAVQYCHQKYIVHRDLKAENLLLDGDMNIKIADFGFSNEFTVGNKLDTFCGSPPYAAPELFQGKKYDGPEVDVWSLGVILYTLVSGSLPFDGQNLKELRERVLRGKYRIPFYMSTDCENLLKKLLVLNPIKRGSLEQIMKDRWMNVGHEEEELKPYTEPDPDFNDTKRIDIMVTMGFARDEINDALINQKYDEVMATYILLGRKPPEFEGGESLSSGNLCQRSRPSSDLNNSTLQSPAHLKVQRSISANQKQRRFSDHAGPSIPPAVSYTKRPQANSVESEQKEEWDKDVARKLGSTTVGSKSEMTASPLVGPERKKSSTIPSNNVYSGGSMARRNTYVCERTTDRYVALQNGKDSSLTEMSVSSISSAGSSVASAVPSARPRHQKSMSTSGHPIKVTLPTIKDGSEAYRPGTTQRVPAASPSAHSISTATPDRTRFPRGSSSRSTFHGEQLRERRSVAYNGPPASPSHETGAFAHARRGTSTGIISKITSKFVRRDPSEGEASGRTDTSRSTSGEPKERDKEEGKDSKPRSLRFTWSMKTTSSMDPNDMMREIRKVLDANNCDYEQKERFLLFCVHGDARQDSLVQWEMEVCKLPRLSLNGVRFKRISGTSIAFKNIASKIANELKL

Sequence of Serine/threonine-protein kinase SIK1 (Homo sapiens) (P57059 whole entry): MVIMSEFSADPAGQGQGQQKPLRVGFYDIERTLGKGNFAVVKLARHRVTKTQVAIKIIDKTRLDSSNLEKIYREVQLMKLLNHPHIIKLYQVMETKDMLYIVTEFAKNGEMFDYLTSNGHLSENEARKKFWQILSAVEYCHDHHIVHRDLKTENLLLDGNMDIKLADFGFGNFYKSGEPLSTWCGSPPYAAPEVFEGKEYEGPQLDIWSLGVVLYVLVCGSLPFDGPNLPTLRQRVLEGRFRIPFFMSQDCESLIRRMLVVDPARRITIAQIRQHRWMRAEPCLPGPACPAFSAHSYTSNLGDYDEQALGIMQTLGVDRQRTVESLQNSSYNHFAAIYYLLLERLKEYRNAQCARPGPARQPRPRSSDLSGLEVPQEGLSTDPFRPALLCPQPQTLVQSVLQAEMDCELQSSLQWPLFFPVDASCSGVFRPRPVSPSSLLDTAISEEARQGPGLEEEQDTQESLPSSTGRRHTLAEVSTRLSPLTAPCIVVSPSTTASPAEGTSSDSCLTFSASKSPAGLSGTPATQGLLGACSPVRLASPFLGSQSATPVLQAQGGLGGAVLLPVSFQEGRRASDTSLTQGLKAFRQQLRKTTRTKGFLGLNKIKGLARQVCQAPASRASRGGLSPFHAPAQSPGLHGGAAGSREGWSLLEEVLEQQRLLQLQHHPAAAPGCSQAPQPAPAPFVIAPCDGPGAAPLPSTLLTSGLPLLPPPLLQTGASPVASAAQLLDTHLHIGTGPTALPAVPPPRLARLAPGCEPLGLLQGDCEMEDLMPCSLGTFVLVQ

Nc1cnc(N2CCc3cc(S(=O)(=O)Nc4c(F)cc(Cl)cc4F)cc(N4CCCC4=O)c32)nc1
inactive: residual activity [1] 76% | residual activity [2] 100% | residual activity [3] 100% | residual activity [4] 98% | residual activity [5] 100% | residual activity [6] 100% | residual activity [7] 100% | residual activity [8] 100% | residual activity [9] 100% | residual activity [10] 70% | residual activity [11] 100% | residual activity [12] 100% | residual activity [13] 100% | residual activity [14] 100% | residual activity [15] 100% | residual activity [16] 91% | residual activity [17] 63% | residual activity [18] 78% | residual activity [19] 100% | residual activity [20] 100% | residual activity [21] 92% | residual activity [22] 99% | residual activity [23] 100% | residual activity [24] 86% | residual activity [25] 100% | residual activity [26] 96% | residual activity [27] 90% | residual activity [28] 100% | residual activity [29] 69% | residual activity [30] 100% | residual activity [31] 85% | residual activity [32] 100% | residual activity [33] 96% | residual activity [34] 90% | residual activity [35] 90% | inhibition [36] -2.82% | residual activity [37] 100% | residual activity [38] 72% | residual activity [39] 97% | inhibition [40] -3.82% | residual activity [41] 81% | residual activity [42] 100% | residual activity [43] 100% | residual activity [44] 100% | residual activity [45] 76%

Cn1nc(C(F)(F)F)cc1-c1cnc(N2CCc3cc(S(=O)(=O)Nc4c(F)cc(Cl)cc4F)cc(N4CCCC4=O)c32)nc1 [TP-020]
inactive: residual activity [1] 100% | residual activity [2] 100% | residual activity [3] 100% | residual activity [4] 100% | residual activity [5] 100% | residual activity [6] 96% | residual activity [7] 96% | residual activity [8] 100% | residual activity [9] 83% | residual activity [10] 93% | residual activity [11] 100% | residual activity [12] 91% | residual activity [13] 83% | residual activity [14] 80% | residual activity [15] 77% | residual activity [16] 98% | residual activity [17] 100% | residual activity [18] 100% | residual activity [19] 91% | residual activity [20] 100% | residual activity [21] 84% | residual activity [22] 60% | residual activity [23] 71% | residual activity [24] 87% | residual activity [25] 95% | residual activity [26] 81% | residual activity [27] 94% | residual activity [28] 94% | residual activity [29] 94% | residual activity [30] 90% | residual activity [31] 100% | residual activity [32] 83% | residual activity [33] 100% | residual activity [34] 100% | residual activity [35] 95% | inhibition [36] 8.54% | residual activity [37] 100% | residual activity [38] 85% | residual activity [39] 87% | inhibition [40] 9.13% | residual activity [41] 93% | residual activity [42] 97% | residual activity [43] 81% | residual activity [44] 93% | residual activity [45] 92%
